Patent US7572775B2, “Method of inhibiting intestinal polyps” (Japan as Represented by Director General of Agency of …, priority 2004, dated 2009)
Marks after values point to notes of the source that are not given here.

Test system: Min mice of a familial adenomatous polyposis model (Apc gene deficient mice, C57BL/6-ApcMin/+)
Assay: Intestinal polyp suppression test (intestinal polyp assay) in Min mice
Assay type: in vivo, mouse
Settings: for Number of polyps/mouse, colon / Number of polyps/mouse, small intestine, central / Number of polyps/mouse, small intestine, distal / Number of polyps/mouse, small intestine, proximal / Number of polyps/mouse, total / Number of polyps, percentage of the result for the 0 dose (control) group, small intestine, central / Number of polyps, percentage of the result for the 0 dose (control) group, small intestine, distal / Number of polyps, percentage of the result for the 0 dose (control) group, small intestine, proximal / Number of polyps, percentage of the result for the 0 dose (control) group, colon / Number of polyps, percentage of the result for the 0 dose (control) group, total: male Min mice; for Number of polyps/mouse, colon / Number of polyps/mouse, small intestine, central / Number of polyps/mouse, small intestine, distal / Number of polyps/mouse, small intestine, proximal / Number of polyps/mouse, total: average ± SE; for Number of polyps, percentage of the result for the 0 dose (control) group, small intestine, proximal: p < 0.01 vs control
Protocol: The experimental animals were male Min mice of a familial adenomatous polyposis model (Apc (Adenomatous polyposis coli) gene deficient mice, C57BL/6-ApcMin/+, Jackson Laboratory, Bar Harbor, Me.). These mice were purchased at age 5 weeks, and acclimatized for 2 weeks to laboratory conditions (24±2° C., humidity 55%, 12 hours light/12 hours dark cycle, free access to feed and water) before being used in the tests. The feed was “AIN-76A” basic feed (Clea Japan).
Wild-type […] mice (from the same source) were subjected to the same test as a control.
Compound A was used as the experimental medicine. The compound was mixed to a specific concentration (400 ppm or 800 ppm) with the AIN-76A basic feed for use in the tests.
Feed comprising a specific amount of the experimental medicine mixed to a specific concentration with basic feed (AIN-76A) was administered to the experimental group mice (2 groups of 10 mice) and comparison group mice (1 group of 10 mice) for 13 weeks from age 7 weeks to age 20 weeks (natural feeding). When death was confirmed during the experiment, however, administration was naturally discontinued.
A group of 10 mice receiving basic feed (AIN-76A) without the experimental medicine added for the same length of time was set up as a control group (experimental drug non-administration group).
13 weeks after the start of the experiment the mice in all groups (excluding those which had died) were euthanized, and an intestinal polyp assay was performed as follows.
The intestines were removed from the mice in all groups, placed in phosphate buffer containing 10% formalin, and then separated into four parts: (1) the colon, (2) the proximal part of the small intestine (about 4 cm long beginning at the pylorus), (3) the central part of the small intestine (the center of the remaining half of the small intestine) and (4) the distal part of the small intestine (the distal part of the remaining half of the small intestine). Each part was opened longitudinally, and fixed flat between sheets of filter paper in phosphate buffer containing 10% formalin.
The number and size of polyps and their distribution in the intestines were counted, measured and evaluated under a stereoscopic microscope. These methods are described in the literature reference(Watanabe, K. et al., “Role of the prostaglandin E receptor subtype EP1 in colon carcinogenesis”, Cancer Res., 59, 5093-6 (1999)).

[1] = 400 ppm in AIN-76A feed for 13 weeks
[2] = 400 ppm in feed for 13 weeks, p < 0.05 vs control
[3] = 800 ppm in AIN-76A feed for 13 weeks
[4] = 800 ppm in feed for 13 weeks, p < 0.05 vs control

CCOP(=O)(Cc1ccc(C(=O)Nc2ccc(Br)cc2C#N)cc1)OCC [Compound A, 4-diethoxyphosphinoylmethyl-N-(4-bromo-2-cyanophenyl)benzamide]
Number of polyps by polyp diameter (FIG. 1) (400 ppm and 800 ppm in feed, Min mice, polyp diameter (mm)): reduction in the number of polyps of all sizes | Number of polyps/mouse, colon [1]: 0.4 ± 0.2 polyps/mouse | Number of polyps/mouse, small intestine, central [1]: 16.1 ± 3.8 polyps/mouse | Number of polyps/mouse, small intestine, distal [1]: 33.0 ± 6.5 polyps/mouse | Number of polyps/mouse, small intestine, proximal [1]: 8.5 ± 1.4 polyps/mouse | Number of polyps/mouse, total [1]: 58.0 ± 10.8 polyps/mouse | Number of polyps, percentage of the result for the 0 dose (control) group, small intestine, central (400 ppm in feed for 13 weeks): (43) percentage | Number of polyps, percentage of the result for the 0 dose (control) group, small intestine, distal (400 ppm in feed for 13 weeks): (55) percentage | Number of polyps, percentage of the result for the 0 dose (control) group, small intestine, proximal (400 ppm in feed for 13 weeks): (37)^d percentage | Number of polyps, percentage of the result for the 0 dose (control) group, colon [2]: (38)^c percentage | Number of polyps, percentage of the result for the 0 dose (control) group, total [2]: (48)^c percentage | Mice that died during the experiment (death due to bleeding from polyps) (400 ppm in feed, group of 10 Min mice, 13 weeks, 3 died in the control group): 2 mice | Number of polyps/mouse, colon [3]: 0.3 ± 0.2 polyps/mouse | Number of polyps/mouse, small intestine, central [3]: 13.8 ± 2.6 polyps/mouse | Number of polyps/mouse, small intestine, distal [3]: 30.5 ± 5.0 polyps/mouse | Number of polyps/mouse, small intestine, proximal [3]: 5.9 ± 1.0 polyps/mouse | Number of polyps/mouse, total [3]: 50.5 ± 7.8 polyps/mouse | Number of polyps, percentage of the result for the 0 dose (control) group, small intestine, proximal (800 ppm in feed for 13 weeks): (26)^d percentage | Number of polyps, percentage of the result for the 0 dose (control) group, colon [4]: (30)^c percentage | Number of polyps, percentage of the result for the 0 dose (control) group, small intestine, central [4]: (37)^c percentage | Number of polyps, percentage of the result for the 0 dose (control) group, small intestine, distal [4]: (51)^c percentage | Number of polyps, percentage of the result for the 0 dose (control) group, total [4]: (42)^c percentage | Polyp suppression effect (dosage of either 400 ppm or 800 ppm in feed, Min mice): excellent polyp suppression effect
